Assay results published in BigSolDB 2.1.

CO/N=C(\C(=O)N[C@@H]1C(=O)N2C(C(=O)O)=C(CSC(=O)c3ccco3)CS[C@H]12)c1csc(N)n1.Cl
Conditions | solubility (mole fraction)
in acetone, 283.36 K | 1e-05
in acetone, 288.2 K | 1.6e-05
in acetone, 293.15 K | 2.7e-05
in acetone, 298.05 K | 4.3e-05
in acetone, 302.87 K | 7e-05
in acetone, 307.65 K | 0.00011
in acetone, 313.45 K | 0.000193
in acetone, 318.4 K | 0.000313
in acetone, 322.35 K | 0.000478
in ethanol, 283.35 K | 0.00178
in ethanol, 288.15 K | 0.00192
in ethanol, 293.15 K | 0.00209
in ethanol, 298.15 K | 0.00233
in ethanol, 303.1 K | 0.00262
in ethanol, 307.95 K | 0.00292
in ethanol, 313.55 K | 0.00335
in ethanol, 318.75 K | 0.00384
in ethanol, 322.65 K | 0.00421
in isopropanol, 283.2 K | 0.000235
in isopropanol, 288.2 K | 0.000255
in isopropanol, 293.15 K | 0.000311
in isopropanol, 298.15 K | 0.000402
in isopropanol, 303.05 K | 0.000535
in isopropanol, 308 K | 0.000649
in isopropanol, 312.8 K | 0.000793
in isopropanol, 318.45 K | 0.001
in isopropanol, 324.35 K | 0.00134
in methanol, 283.25 K | 0.00952
in methanol, 288.25 K | 0.00992
in methanol, 293.15 K | 0.0105
in methanol, 297.85 K | 0.0112
in methanol, 300.55 K | 0.0116
in methanol, 307.35 K | 0.0127
in methanol, 313.3 K | 0.0137
in methanol, 317.95 K | 0.0148
in methanol, 320.65 K | 0.0155
in n-propanol, 283.55 K | 0.000534
in n-propanol, 288.55 K | 0.000573
in n-propanol, 293.35 K | 0.000646
in n-propanol, 298.35 K | 0.000717
in n-propanol, 303.35 K | 0.000802
in n-propanol, 308.05 K | 0.000922
in n-propanol, 312.95 K | 0.00103
in n-propanol, 317.95 K | 0.00117
in n-propanol, 322.75 K | 0.00135
